Experimental data as given in patent US8969362B2 (priority 2004, dated 2015).

How the values were obtained:
[1] = tested on: rat spleen cells; experiment: cells; assay type: cell-based; details: 24 h, read-out: Minimum effective concentration (interferon inducing activity)
[2] = Metabolic stability test on rat liver S9; assay type: in vitro ADME; details: rat liver S9 with NADPH, 1 μM test compound, 37° C.; residual rate after reaction
Procedure: The reaction using liver S9 of rat was conducted on a 96-well plate by using a screening robot by Tecan Company. S9 solution was prepared by adding 250 mM Kpi (ph 7.4) 20 ml and deionized water 20 ml to 10 ml of liver S9 of rat, a Cofactor solution was prepared by dissolving NADPH 220 mg in deionized water 40.5 ml (Final 6 mM), and IS (Internal Standard) solution was prepared by adding IS solution (1 mM DMSO solution) 300 μl to acetonitrile 30 ml (100 times dilution). The test compound (1 μM DMSO solution) was dissolved in an incubator at 37° C. After each 35 μL was poured in a 96-well plate (24 samples/plate), plates (sample plates, 96-well plates for dilution, each Deep well plates for the reaction and the recovery, plates for extraction of a solid phase) and reagents (S9 solution, Cofactor solution, IS (Internal Standard) solution, Stop solution, acetonitrile for elution) were set to the specified position in the booth of the robot and the reaction started (the concentration of the test compounds was 1 μM). Incubation was conducted under shaking at 37° C., the solid phase was extracted (at the same time, the internal standard for analysis was added). To the recovered samples 200 μL/well was added 50 μL of acetonitrile per each well, and to 2 plates of FALCON Deep well were poured 100 μL/well of the solution per well. By subjecting to the LC/MS analysis, the chromatography of the test compound and the internal standard were described and the peak area was calculated. And then, the stability (residual rate after reaction) was calculated.

[3] = Metabolic stability test using human plasma; assay type: in vitro ADME; details: 1 μM test compound, 37° C., 15 minutes, pre-metabolization concentration as 100%
Procedure: Plasma was prepared from fresh human blood and the test compound (containing 1% DMSO) of the final concentration of 1 μM was added thereto.
After a metabolic reaction by plasma esterase was conducted at 37° C. for 15 minutes, the test compound was extracted with ethyl acetate, and quantitatively analyzed by reverse phase HPLC. The metabolic stability of the test compound was shown by the residual amount (%) per the concentration of pre-metabolization as 100%.

| Structure (SMILES) | minimal effective concentration [1] | Residual rate [2] | Residual rate [3] |
| --- | --- | --- | --- |
| CCCCOc1nc(N)c2[nH]c(=O)n(CCCCNS(=O)(=O)c3cccc(C(=O)OC)c3)c2n1 [Example 8, 2-butoxy-8-oxo-9-[4-(3-methoxycarbonylbenzenesulfonamide)butyl]adenine] | 0.003 µM | 0% |  |
| CCCCOc1nc(N)c2[nH]c(=O)n(CCCCNS(=O)(=O)c3cccc(CC(=O)OC)c3)c2n1 [Example 9, 2-butoxy-8-oxo-9-[4-(3-methoxycarbonylmethylbenzenesulfonamide)butyl]adenine] | 0.003 µM | 0% | <1.0% |
| CCCCOc1nc(N)c2[nH]c(=O)n(CCOc3cccc(CC(=O)OC)c3)c2n1 [Example 2, 2-butoxy-8-oxo-9-[2-(3-methoxycarbonylmethylphenoxy)ethyl]adenine] | 0.003 µM | 1% | 1.4% |
| CCCCOc1nc(N)c2[nH]c(=O)n(CCOc3cccc(C(=O)OC)c3)c2n1 [Example 1, 2-butoxy-8-oxo-9-[2-(3-methoxycarbonylphenoxy)ethyl]adenine] | 0.0003 µM | 0% |  |
| CCCCOc1nc(N)c2[nH]c(=O)n(CCCCNC(=O)Nc3cccc(C(=O)OC)c3)c2n1 [Example 10, 2-butoxy-8-oxo-9-[4-(3-methoxycarbonylphenylaminocarbonylamino)butyl]adenine] | 0.001 µM | 1% |  |
| CCCCOc1nc(N)c2[nH]c(=O)n(CCOc3ccc(CC(=O)OC)cc3)c2n1 [Example 6, 2-butoxy-8-oxo-9-[2-(4-methoxycarbonylmethylphenoxy)ethyl]adenine] | 0.01 µM | 0% |  |
| CCCCOc1nc(N)c2[nH]c(=O)n(CCOc3ccccc3CC(=O)OC)c2n1 [Example 4, 2-butoxy-8-oxo-9-[2-(2-methoxycarbonylmethylphenoxy)ethyl]adenine] | 0.001 µM | 0% |  |
| CCCCOc1nc(N)c2[nH]c(=O)n(CCCCNC(=O)Nc3cccc(CC(=O)O)c3)c2n1 [Comparison Example 11, 2-butoxy-8-oxo-9-[4-(3-hydroxycarbonylmethylphenylaminocarbonylamino)butyl]adenine, reference compound] | 0.1 µM |  |  |
| CCCCOc1nc(N)c2[nH]c(=O)n(CCOc3ccc(CCC(=O)OC)cc3)c2n1 [Example 7, 2-butoxy-8-oxo-9-{2-[4-(2-methoxycarbonylethyl)phenoxy]ethyl}adenine] |  | 0% |  |
| CCCCOc1nc(N)c2nc(O)n(CCCCNS(=O)(=O)c3cccc(CC(=O)O)c3)c2n1 [Comparison Example 9, 2-butoxy-8-oxo-9-[4-(3-hydroxycarbonylmethylbenzenesulfonamide)butyl]adenine, reference compound] | 0.3 µM |  |  |
| CCCCOc1nc(N)c2[nH]c(=O)n(CCCCNC(=O)Nc3cccc(C(=O)O)c3)c2n1 [Comparison Example 10, 2-butoxy-8-oxo-9-[4-(3-hydroxycarbonylphenylaminocarbonylamino)butyl]adenine, reference compound] | 0.3 µM |  |  |
| CCCCOc1nc(N)c2[nH]c(=O)n(CCOc3cccc(CC(=O)O)c3)c2n1 [Comparison Example 2, 2-butoxy-8-oxo-9-[2-(3-hydroxycarbonylmethylphenoxy)ethyl]adenine, reference compound] | 0.03 µM |  |  |
| CCCCOc1nc(N)c2[nH]c(=O)n(CCOc3ccc(C(=O)OC)cc3)c2n1 [Example 5, 2-butoxy-8-oxo-9-[2-(4-methoxycarbonylphenoxy)ethyl]adenine] |  | 0% |  |
| CCCCOc1nc(N)c2[nH]c(=O)n(CCOc3ccccc3C(=O)OC)c2n1 [Example 3, 2-butoxy-8-oxo-9-[2-(2-methoxycarbonylphenoxy)ethyl]adenine] | 0.001 µM | 0% |  |
| CCCCOc1nc(N)c2[nH]c(=O)n(CCCCNC(=O)Nc3cccc(CC(=O)OC)c3)c2n1 [Example 11, 2-butoxy-8-oxo-9-[4-(3-methoxycarbonylmethylphenylaminocarbonylamino)butyl]adenine] | 0.01 µM |  |  |
| CCCCOc1nc(N)c2[nH]c(=O)n(CCOc3cccc(C(=O)O)c3)c2n1 [Comparison Example 1, 2-butoxy-8-oxo-9-[2-(3-hydroxycarbonylphenoxy)ethyl]adenine, reference compound] | 0.01 µM |  |  |
